Test results as given in patent US4900719A, “Nitrosothiols as hypotensive agents” (The Ohio State University, priority 1988, dated 1990).

What was measured:
anesthetized monkeys = test: mean arterial pressure during venous infusion in anesthetized monkeys; assay type: in vivo, cynomologus monkeys (Macaca fascicularis)
Protocol: (§1) Fifty milligrams of SNP (Nipride, Roche Laboratories) was reconstituted in 250 ml of 5% dextrose in water. A GSNO solution was diluted as 50 ug/ml in 5% dextrose in water. Seven mongrel dogs (18.1-31.8 kg) and seven cynomologus monkeys (Macaca fascicularis; 4.4-9.0 kg) were used in the study. The animals were given a pre-anesthetic (monkeys--Ketamine HCl, 10 mg/kg I.M.; dogs--0.2 mg/kg fentanyl and 1 mg/kg droperidol, Innovar Vet I.V.) and anesthetized with a mixture of α-chloralose (50 mg/kg) and urethane (500 mg/kg) given as an intravenous injection. The left femoral artery and vein were cannulated with heparinized saline-filled catheters. Arterial pressure was obtained from the arterial catheter using an electromedics MS-20 solid state pressure transducer and recorded on a Gould 2400 chart recorder. Randomized venous infusions of GSNO (n=7) and SNP (n=5) were made using Harvard apparatus compact infusion pump model 976. The infusion was maintained until a new steady state value for mean arterial pressure had been obtained for each infusion rate. The infusion rate was varied over the following ranges: GSNO 1.5-38.9 μg/kg/min (8 levels) and SNP 1.7-43.8 μg/kg/min (6 levels).
(§2) Intravenous administrations of GSNO or SNP in a wide range of doses decreased systematic arterial pressure in a dose related fashion. […]

[1] = system: anesthetized dogs and monkeys; test: venous infusion in anesthetized dogs and monkeys, collected animal data (response time, onset/dissipation, effective dosage); assay type: in vivo
Protocol: as §1
Intravenous administrations of GSNO or SNP in a wide range of doses decreased systematic arterial pressure in a dose related fashion. FIGS. 1 and 2 show the dose-response curves for the dogs and monkeys, respectively, that occurred by SNP or GSNO administrations. In each figure (.) presents the data for SNP and (o) presents the data for GSNO. The blood pressure lowering effect of SNP and GSNO is greater in monkeys than in dogs. When 20 μg/kg/min of SNP or GSNO was administered, mean arterial pressure decreased 35-40 torr for dogs and 45 torr for monkeys. The noted response time for SNP was about 28.6±2.5 sec. and for GSNO about 33.4±6.0 sec.
From the collected animal data, it can be noted that in general the decrease in blood pressure is dosage dependent.

anesthetized dogs [2] = test: mean arterial pressure during venous infusion in anesthetized dogs; assay type: in vivo, mongrel dogs
Protocol: as §1, §2

[3] = storage stability of solid GSNO (absorbance at 544 nm); assay type: physicochemical
Protocol: In air at 4° no change in the characteristic original absorbance at 544 nm was observed after 32 days. At room temperature, 75% of that absorption remained after the same period.

anesthetized dogs [4] = test: arterial blood pressure after intravenous injection in anesthetized dogs (Examples 2 and 3); assay type: in vivo; conditions: intravenous injection in dextrose
Protocol: A GSNO solution was diluted as 50 ug/ml in 5% dextrose in water. […] The animals were given a pre-anesthetic (monkeys--Ketamine HCl, 10 mg/kg I.M.; dogs--0.2 mg/kg fentanyl and 1 mg/kg droperidol, Innovar Vet I.V.) and anesthetized with a mixture of α-chloralose (50 mg/kg) and urethane (500 mg/kg) given as an intravenous injection. The left femoral artery and vein were cannulated with heparinized saline-filled catheters. Arterial pressure was obtained from the arterial catheter using an electromedics MS-20 solid state pressure transducer and recorded on a Gould 2400 chart recorder. […] The infusion was maintained until a new steady state value for mean arterial pressure had been obtained for each infusion rate.
By following in general the procedure described for GSNO in Example 1, animal experiments are performed on a plurality of anesthetized dogs with each intravenous injection of S-Nitrosocaptopril in dextrose as well as the arterial blood pressure of the dogs being recorded.
The specific injections as well as the arterial blood pressure of the dogs are recorded.

[5] = stability of other nitrosothiols (qualitative statement); assay type: physicochemical

Row | SMILES | blood pressure lowering (in words) (anesthetized monkeys; anesthetized monkeys, venous infusion, to about the same extent as SNP) | decrease in mean arterial pressure (anesthetized monkeys; monkeys, 20 μg/kg/min venous infusion) | onset and dissipation of effect ([1]; anesthetized dogs and monkeys, compared with SNP) | effective dosage to significantly lower arterial pressure ([1]; infusion administration, from the collected animal data) | response time ([1]; venous infusion, species not stated) | blood pressure lowering (in words) (anesthetized dogs [2]; anesthetized dogs, venous infusion, to about the same extent as SNP) | decrease in mean arterial pressure (anesthetized dogs [2]; dogs, 20 μg/kg/min venous infusion) | change in characteristic original absorbance at 544 nm ([3]; in air at 4°, after 32 days) | absorption at 544 nm remaining ([3]; room temperature, after 32 days) | effect of exclusion of light and air on stability ([3]; storage for more than 30 days) | lowering of arterial blood pressure (in words) (anesthetized dogs [4]) | stability (in words) [5]
1 | N[C@@H](CCC(=O)N[C@@H](CSN=O)C(=O)NCC(=O)O)C(=O)O [GSNO, S-nitrosoglutathione] | significantly lowered blood pressure | 45 torr | essentially the same as obtained with SNP | at least 7 μg/1 kg animal weight/minute | about 33.4±6.0 sec. | significantly lowered blood pressure | 35-40 torr | no change | 75% | virtually no noticeable effect | – | –
2 | C[C@H](CSN=O)C(=O)N1CCC[C@H]1C(=O)O [S-Nitrosocaptopril, D-(S-nitroso) 3-mercaptomethylpropionyl-L-proline] | – | – | – | – | – | – | – | – | – | – | Significant lowering of arterial blood pressure | quite stable
